From US20210127673A1, “HERBICIDES” (SYNGENTA PARTICIPATIONS AG, priority 2016, published 2021)

Legend:
Type in all cases: in vivo
Conditions in all cases: 1000 g/ha, evaluated after 13 days
[1] = test system: Triticum aestivium (TRZAW); test: Pre-emergence herbicidal activity, Triticum aestivium; parameters: key: 5=total damage to plant; 0=no damage to plant
Method: (§1) Seeds of a variety of test species were sown in standard soil in pots: Triticum aestivium (TRZAW), Avena fatua (AVEFA), Alopecurus myosuroides (ALOMY), Echinochloa crus-galli (ECHCG), Lolium perenne (LOLPE), Zea Mays (ZEAMX), Abutilon theophrasti (ABUTH), Amaranthus retroflexus (AMARE) and Setaria faberi (SETFA). After cultivation for one day (pre-emergence) under controlled conditions in a glasshouse (at 24/16° C., day/night; 14 hours light; 65% humidity), the plants were sprayed with an aqueous spray solution derived from the formulation of the technical active ingredient in acetone/water (50:50) solution containing 0.5% Tween 20 (polyoxyethelyene sorbitan monolaurate, CAS RN 9005-64-5). The test plants were then grown in a glasshouse under controlled conditions (at 24/16°, day/night; 14 hours light; 65% humidity) and watered twice daily. After 13 days, the test was evaluated (5=total damage to plant; 0=no damage to plant).

Avena fatua (AVEFA) [2] = test: Pre-emergence herbicidal activity, Avena fatua; parameters: key: 5=total damage to plant; 0=no damage to plant
Method: as §1

[3] = test system: Alopecurus myosuroides (ALOMY); test: Pre-emergence herbicidal activity, Alopecurus myosuroides; parameters: key: 5=total damage to plant; 0=no damage to plant
Method: as §1

[4] = test system: Echinochloa crus-galli (ECHCG); test: Pre-emergence herbicidal activity, Echinochloa crus-galli
Method: as §1

Lolium perenne (LOLPE) [5] = test: Pre-emergence herbicidal activity, Lolium perenne; parameters: key: 5=total damage to plant; 0=no damage to plant
Method: as §1

Setaria faberi (SETFA) [6] = test: Pre-emergence herbicidal activity, Setaria faberi; parameters: key: 5=total damage to plant; 0=no damage to plant
Method: as §1

[7] = test system: Triticum aestivium (TRZAW); test: Post-emergence herbicidal activity, Triticum aestivium; parameters: key: 5=total damage to plant; 0=no damage to plant
Method: (§2) Seeds of a variety of test species were sown in standard soil in pots: Triticum aestivium (TRZAW), Avena fatua (AVEFA), Alopecurus myosuroides (ALOMY), Echinochloa crus-galli (ECHCG), Lolium perenne (LOLPE), Zea Mays (ZEAMX), Abutilon theophrasti (ABUTH), Amaranthus retroflexus (AMARE) and Setaria faberi (SETFA). After 8 days cultivation (post-emergence) under controlled conditions in a glasshouse (at 24/16° C., day/night; 14 hours light; 65% humidity), the plants were sprayed with an aqueous spray solution derived from the formulation of the technical active ingredient in acetone/water (50:50) solution containing 0.5% Tween 20 (polyoxyethelyene sorbitan monolaurate, CAS RN 9005-64-5). The test plants were then grown in a glasshouse under controlled conditions (at 24/16° C., day/night; 14 hours light; 65% humidity) and watered twice daily. After 13 days, the test was evaluated (5=total damage to plant; 0=no damage to plant).

Avena fatua (AVEFA) [8] = test: Post-emergence herbicidal activity, Avena fatua
Method: as §2

[9] = test system: Alopecurus myosuroides (ALOMY); test: Post-emergence herbicidal activity, Alopecurus myosuroides; parameters: key: 5=total damage to plant; 0=no damage to plant
Method: as §2

[10] = test system: Echinochloa crus-galli (ECHCG); test: Post-emergence herbicidal activity, Echinochloa crus-galli; parameters: key: 5=total damage to plant; 0=no damage to plant
Method: as §2

Lolium perenne (LOLPE) [11] = test: Post-emergence herbicidal activity, Lolium perenne
Method: as §2

Setaria faberi (SETFA) [12] = test: Post-emergence herbicidal activity, Setaria faberi; parameters: key: 5=total damage to plant; 0=no damage to plant
Method: as §2

SMILES: CNC(=O)Nc1ccc(-c2cncc(F)c2)nc1C(F)(F)F [Compound B49]
- Control of TRAZW after pre-emergence application (score 0-5) [1]: 0
- Control of AVEFA after pre-emergence application (score 0-5) (Avena fatua (AVEFA) [2]): 2
- Control of ALOMY after pre-emergence application (score 0-5) [3]: 0
- Control of ECHCG after pre-emergence application (score 0-5) [4]: 3
- Control of LOLPE after pre-emergence application (score 0-5) (Lolium perenne (LOLPE) [5]): 0
- Control of SETFA after pre-emergence application (score 0-5) (Setaria faberi (SETFA) [6]): 4
- Control of TRAZW after post-emergence application (score 0-5) [7]: 0
- Control of AVEFA after post-emergence application (score 0-5) (Avena fatua (AVEFA) [8]): 2
- Control of ALOMY after post-emergence application (score 0-5) [9]: 0
- Control of ECHCG after post-emergence application (score 0-5) [10]: 4
- Control of LOLPE after post-emergence application (score 0-5) (Lolium perenne (LOLPE) [11]): 2
- Control of SETFA after post-emergence application (score 0-5) (Setaria faberi (SETFA) [12]): 4

SMILES: C=CCOC(=O)Nc1ccc(-c2cncc(F)c2)nc1C(F)(F)F [Compound B119]
- Control of TRAZW after pre-emergence application (score 0-5) [1]: 0
- Control of AVEFA after pre-emergence application (score 0-5) (Avena fatua (AVEFA) [2]): 2
- Control of ALOMY after pre-emergence application (score 0-5) [3]: 0
- Control of ECHCG after pre-emergence application (score 0-5) [4]: 3
- Control of LOLPE after pre-emergence application (score 0-5) (Lolium perenne (LOLPE) [5]): 0
- Control of SETFA after pre-emergence application (score 0-5) (Setaria faberi (SETFA) [6]): 5
- Control of TRAZW after post-emergence application (score 0-5) [7]: 0
- Control of AVEFA after post-emergence application (score 0-5) (Avena fatua (AVEFA) [8]): 4
- Control of ALOMY after post-emergence application (score 0-5) [9]: 0
- Control of ECHCG after post-emergence application (score 0-5) [10]: 3
- Control of LOLPE after post-emergence application (score 0-5) (Lolium perenne (LOLPE) [11]): 3
- Control of SETFA after post-emergence application (score 0-5) (Setaria faberi (SETFA) [12]): 5

SMILES: O=C(Nc1ccc(-c2cncc(F)c2)nc1C(F)(F)F)N1CCCC1 [Compound B63]
- Control of TRAZW after pre-emergence application (score 0-5) [1]: 0
- Control of AVEFA after pre-emergence application (score 0-5) (Avena fatua (AVEFA) [2]): 0
- Control of ALOMY after pre-emergence application (score 0-5) [3]: 1
- Control of ECHCG after pre-emergence application (score 0-5) [4]: 2
- Control of LOLPE after pre-emergence application (score 0-5) (Lolium perenne (LOLPE) [5]): 0
- Control of SETFA after pre-emergence application (score 0-5) (Setaria faberi (SETFA) [6]): 2
- Control of TRAZW after post-emergence application (score 0-5) [7]: 0
- Control of AVEFA after post-emergence application (score 0-5) (Avena fatua (AVEFA) [8]): 2
- Control of ALOMY after post-emergence application (score 0-5) [9]: 0
- Control of ECHCG after post-emergence application (score 0-5) [10]: 5
- Control of LOLPE after post-emergence application (score 0-5) (Lolium perenne (LOLPE) [11]): 2
- Control of SETFA after post-emergence application (score 0-5) (Setaria faberi (SETFA) [12]): 3

SMILES: O=C(Nc1ccc(-c2cncc(F)c2)nc1C(F)(F)F)OC1CCS(=O)(=O)C1 (stereo not shown) [Compound B66]
- Control of TRAZW after pre-emergence application (score 0-5) [1]: 0
- Control of AVEFA after pre-emergence application (score 0-5) (Avena fatua (AVEFA) [2]): 2
- Control of ALOMY after pre-emergence application (score 0-5) [3]: 0
- Control of ECHCG after pre-emergence application (score 0-5) [4]: 3
- Control of LOLPE after pre-emergence application (score 0-5) (Lolium perenne (LOLPE) [5]): 1
- Control of SETFA after pre-emergence application (score 0-5) (Setaria faberi (SETFA) [6]): 5
- Control of TRAZW after post-emergence application (score 0-5) [7]: 1
- Control of ALOMY after post-emergence application (score 0-5) [9]: 0
- Control of ECHCG after post-emergence application (score 0-5) [10]: 4
- Control of SETFA after post-emergence application (score 0-5) (Setaria faberi (SETFA) [12]): 5

SMILES: CN(C)C(=O)Nc1ccc(-c2cncc(F)c2)nc1C(F)(F)F [Compound B52]
- Control of TRAZW after pre-emergence application (score 0-5) [1]: 0
- Control of AVEFA after pre-emergence application (score 0-5) (Avena fatua (AVEFA) [2]): 2
- Control of ALOMY after pre-emergence application (score 0-5) [3]: 0
- Control of ECHCG after pre-emergence application (score 0-5) [4]: 3
- Control of LOLPE after pre-emergence application (score 0-5) (Lolium perenne (LOLPE) [5]): 1
- Control of TRAZW after post-emergence application (score 0-5) [7]: 0
- Control of AVEFA after post-emergence application (score 0-5) (Avena fatua (AVEFA) [8]): 3
- Control of ALOMY after post-emergence application (score 0-5) [9]: 0
- Control of ECHCG after post-emergence application (score 0-5) [10]: 4
- Control of LOLPE after post-emergence application (score 0-5) (Lolium perenne (LOLPE) [11]): 3
- Control of SETFA after post-emergence application (score 0-5) (Setaria faberi (SETFA) [12]): 5

SMILES: CC(C)NC(=O)Nc1ccc(-c2cncc(F)c2)nc1C(F)(F)F [Compound B37, 1-[6-(5-fluoro-3-pyridyl)-2-(trifluoromethyl)-3-pyridyl]-3-isopropyl-urea]
- Control of TRAZW after pre-emergence application (score 0-5) [1]: 0
- Control of AVEFA after pre-emergence application (score 0-5) (Avena fatua (AVEFA) [2]): 2
- Control of ALOMY after pre-emergence application (score 0-5) [3]: 0
- Control of ECHCG after pre-emergence application (score 0-5) [4]: 4
- Control of LOLPE after pre-emergence application (score 0-5) (Lolium perenne (LOLPE) [5]): 1
- Control of SETFA after pre-emergence application (score 0-5) (Setaria faberi (SETFA) [6]): 5
- Control of TRAZW after post-emergence application (score 0-5) [7]: 0
- Control of AVEFA after post-emergence application (score 0-5) (Avena fatua (AVEFA) [8]): 3
- Control of ALOMY after post-emergence application (score 0-5) [9]: 0
- Control of ECHCG after post-emergence application (score 0-5) [10]: 5
- Control of LOLPE after post-emergence application (score 0-5) (Lolium perenne (LOLPE) [11]): 2

SMILES: CN(C)C(=O)N(C)c1ccc(-c2cncc(F)c2)nc1C(F)(F)F [Compound B74]
- Control of TRAZW after pre-emergence application (score 0-5) [1]: 1
- Control of AVEFA after pre-emergence application (score 0-5) (Avena fatua (AVEFA) [2]): 2
- Control of ALOMY after pre-emergence application (score 0-5) [3]: 1
- Control of ECHCG after pre-emergence application (score 0-5) [4]: 4
- Control of LOLPE after pre-emergence application (score 0-5) (Lolium perenne (LOLPE) [5]): 1
- Control of SETFA after pre-emergence application (score 0-5) (Setaria faberi (SETFA) [6]): 5
- Control of TRAZW after post-emergence application (score 0-5) [7]: 0
- Control of ALOMY after post-emergence application (score 0-5) [9]: 0
- Control of ECHCG after post-emergence application (score 0-5) [10]: 4
- Control of SETFA after post-emergence application (score 0-5) (Setaria faberi (SETFA) [12]): 5

SMILES: COC(=O)c1nc(-c2cncc(F)c2)ccc1NC(=O)OC(C)(C)C [Compound B77]
- Control of TRAZW after pre-emergence application (score 0-5) [1]: 0
- Control of AVEFA after pre-emergence application (score 0-5) (Avena fatua (AVEFA) [2]): 0
- Control of ALOMY after pre-emergence application (score 0-5) [3]: 0
- Control of ECHCG after pre-emergence application (score 0-5) [4]: 1
- Control of LOLPE after pre-emergence application (score 0-5) (Lolium perenne (LOLPE) [5]): 0
- Control of TRAZW after post-emergence application (score 0-5) [7]: 0
- Control of AVEFA after post-emergence application (score 0-5) (Avena fatua (AVEFA) [8]): 1
- Control of ALOMY after post-emergence application (score 0-5) [9]: 0
- Control of ECHCG after post-emergence application (score 0-5) [10]: 1
- Control of LOLPE after post-emergence application (score 0-5) (Lolium perenne (LOLPE) [11]): 1
- Control of SETFA after post-emergence application (score 0-5) (Setaria faberi (SETFA) [12]): 2

SMILES: CC(C)(C)OC(=O)Nc1ccc(-c2cncc(OC(F)(F)F)c2)nc1C(F)(F)F [Compound B36]
- Control of TRAZW after pre-emergence application (score 0-5) [1]: 0
- Control of AVEFA after pre-emergence application (score 0-5) (Avena fatua (AVEFA) [2]): 2
- Control of ALOMY after pre-emergence application (score 0-5) [3]: 0
- Control of ECHCG after pre-emergence application (score 0-5) [4]: 3
- Control of LOLPE after pre-emergence application (score 0-5) (Lolium perenne (LOLPE) [5]): 0
- Control of SETFA after pre-emergence application (score 0-5) (Setaria faberi (SETFA) [6]): 5
- Control of TRAZW after post-emergence application (score 0-5) [7]: 0
- Control of AVEFA after post-emergence application (score 0-5) (Avena fatua (AVEFA) [8]): 3
- Control of ALOMY after post-emergence application (score 0-5) [9]: 0
- Control of ECHCG after post-emergence application (score 0-5) [10]: 3
- Control of LOLPE after post-emergence application (score 0-5) (Lolium perenne (LOLPE) [11]): 1
